Each block holds one molecule with its values, some of them ahead of it. Starred links: 1 amine or outer side, 2 acyl side, 3 side chain; linkers in the order of their positions; H or OH if unused. Positions of bridges follow the written chain, without caps; N, C: chain ends. Non-standard residues stand in square brackets, D forms with d. Residues, ends and D or L forms follow the SMILES beside them. *: point of attachment. X1 = CC[C@H](C)[C@@H](N[*:1])[C@@H](O)CC(=O)O[C@H](C(=O)[C@H](C)C(=O)[*:2])C(C)C; X3 = CC[C@H](C)[C@@H](N[*:1])[C@@H](O)CC(=O)[*:2]; X2 = CN(C)c1ccc2c(CC(=O)*)cc(=O)oc2c1; NMeY = CN[C@@H](Cc1ccc(O)cc1)C(=O)O; dNMeL = CN[C@H](CC(C)C)C(=O)O; Hiv = CC(C)[C@H](O)C(=O)O; Pyruvoyl = CC(=O)C(=O)*; Lac = C[C@H](O)C(=O)O
Legend:
human leukaemia samples = details: ref Bresters et al, 2003; cited from earlier work
HeLa-APL cells = assay: Sulphorhodamine B (SRB) growth inhibition assay, resistant subline; type: cell-based, human; details: HeLa-APL vs HeLa wt; for crossresistance of HeLa-APL cells (IC50 values, SRB cell growth assay): 48 or 72 h exposure; for crossresistance of HeLa-APL cells: data not shown
Description: HeLa, HeLa-APL, LoVo and LoVo-dox ([Grandi et al, 1986]) cells were maintained in DMEM supplemented with 10% FCS and 100 U ml^−1 penicillin and streptomycin at 37°C and 5% CO2.
Cells were washed twice with PBS, fixed for 15 min in 1% glutaraldehyde solution, rinsed twice in PBS, and stained in 0.4% SRB solution for 30 min at room temperature. Cells were then rinsed several times with 1% acetic acid solution and air-dried. Sulphorhodamine B was then extracted in 10 mM trizma base solution and the absorbance measured at 490 nm. Cell survival was expressed as percentage of control cell growth.

[1] = system: HeLa wt and HeLa-APL cells; assay: Detection of drug in cell extracts by Maldi-TOF mass spectrometry; type: in vitro ADME, human; details: 450 nM, 1 h exposure, methanol cell extracts, Maldi-TOF MS, parental and HeLa-APL cells
Description: To detect minute amounts of APL present in the cellular extracts, Matrix-Assisted Laser Desorption/Ionisation-Time Of Flight Mass Spectrometry (Maldi-TOF MS) technique was used. Cell cultures were treated with vehicle or APL at the concentrations and times indicated in the text, washed with PBS and harvested by centrifugation at 6000 r.p.m. for 5 min at 4°C. Cell pellets were washed with PBS and extracted with cold methanol. Equal amounts of extract were applied on a template, air dried, mixed with 0.2–0.5 μl matrix (10 mg ml^−1 dihydroxy benzoic acid in water :acetonitrile mix, 1% trifluoroacetic acid) and air dried. Analyses were performed on a Voyager DE Pro (PerSeptive Biosystems, Framingham, MS, USA). Mass spectra were averaged over 100–200 laser shots from a nitrogen laser (337 nm) operating in a linear mode. Ionised molecules were accelerated with a voltage of 20 kV. The following peptides were used as external markers: intact human insulin, human insulin alpha-chain, human insulin beta-chain and cytochrome c.

[2] = system: HeLa wt and HeLa-APL cells; assay: Intracellular accumulation of fluorescent APL-dmac (fluorescence microscopy); type: in vitro ADME, human
Description: (§1) Cells were stained with APL-dmac, Calcein-AM or Hoechst-33342 by direct addition of the fluorescent compounds in the cell culture dishes, incubated at 37°C for the times indicated, washed in PBS and examined by fluorescence microscopy.

[3] = set-up: method as in Vervoort and Fenical, 2000; Joullie et al, 2003; details: ref Vervoort and Fenical, 2000; Joullie et al, 2003; cited from earlier work
Pgp170 in LoVo-Dox cells = biological target: T1, Pgp170 in LoVo-Dox cells (Homo sapiens, UniProt P08183); assay: Calcein-AM accumulation in LoVo-Dox cells (fluorescence microscopy); type: cell-based; details: 50 μM verapamil, Calcein-AM loaded for 1 h
T1 construct: endogenous in cells; host or cells: LoVo-Dox (doxorubicin-selected LoVo colorectal carcinoma cells)
Description: as §1

T1 sequence (P08183 whole entry): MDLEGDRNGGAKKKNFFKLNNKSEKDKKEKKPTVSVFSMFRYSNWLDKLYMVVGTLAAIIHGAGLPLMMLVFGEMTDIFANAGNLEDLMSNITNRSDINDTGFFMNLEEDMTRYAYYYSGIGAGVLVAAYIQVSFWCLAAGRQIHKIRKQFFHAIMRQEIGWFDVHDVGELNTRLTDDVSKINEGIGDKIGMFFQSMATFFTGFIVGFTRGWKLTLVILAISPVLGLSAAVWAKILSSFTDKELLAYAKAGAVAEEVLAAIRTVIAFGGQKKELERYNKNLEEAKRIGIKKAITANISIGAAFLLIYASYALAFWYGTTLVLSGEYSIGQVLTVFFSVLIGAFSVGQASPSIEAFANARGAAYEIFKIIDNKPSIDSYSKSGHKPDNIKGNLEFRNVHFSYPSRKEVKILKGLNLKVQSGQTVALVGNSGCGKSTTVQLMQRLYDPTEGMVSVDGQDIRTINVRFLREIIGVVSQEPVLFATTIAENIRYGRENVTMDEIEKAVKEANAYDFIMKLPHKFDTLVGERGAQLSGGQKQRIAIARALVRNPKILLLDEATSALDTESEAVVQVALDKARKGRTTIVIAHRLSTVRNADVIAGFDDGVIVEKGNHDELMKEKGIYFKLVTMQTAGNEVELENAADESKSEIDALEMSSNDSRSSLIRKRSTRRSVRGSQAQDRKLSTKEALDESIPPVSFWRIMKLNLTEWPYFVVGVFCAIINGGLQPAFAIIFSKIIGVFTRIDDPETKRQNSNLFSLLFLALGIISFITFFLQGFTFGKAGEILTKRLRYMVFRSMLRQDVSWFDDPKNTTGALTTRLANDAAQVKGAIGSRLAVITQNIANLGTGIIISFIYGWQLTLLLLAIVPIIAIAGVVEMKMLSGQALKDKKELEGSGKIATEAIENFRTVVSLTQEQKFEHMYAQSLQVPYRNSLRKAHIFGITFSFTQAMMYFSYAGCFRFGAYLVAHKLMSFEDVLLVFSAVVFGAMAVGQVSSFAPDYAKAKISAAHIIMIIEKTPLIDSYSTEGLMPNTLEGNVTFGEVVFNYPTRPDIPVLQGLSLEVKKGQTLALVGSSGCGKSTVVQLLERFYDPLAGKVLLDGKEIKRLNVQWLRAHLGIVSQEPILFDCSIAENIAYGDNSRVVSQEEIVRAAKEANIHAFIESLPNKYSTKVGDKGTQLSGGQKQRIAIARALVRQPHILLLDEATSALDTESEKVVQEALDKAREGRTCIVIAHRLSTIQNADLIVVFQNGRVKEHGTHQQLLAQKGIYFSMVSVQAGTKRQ

Molecule: Nc1ccn([C@@H]2O[C@H](CO)[C@@H](O)C2(F)F)c(=O)n1 [2′,2′-difluorodeoxycytidine]
crossresistance with APL (human leukaemia samples): trend for crossresistance

crossresistance of HeLa-APL cells (IC50 values, SRB cell growth assay) (HeLa-APL cells; triplicate plates): no significant crossresistance
Molecule: Nc1ncn([C@@H]2O[C@H](CO)[C@@H](O)[C@H]2O)c(=O)n1 [5-azacytidine]

crossresistance of HeLa-APL cells (IC50 values, SRB cell growth assay) (HeLa-APL cells; triplicate plates): no significant crossresistance
Molecule: Sc1ncnc2nc[nH]c12 [6-mercaptopurine]

crossresistance of HeLa-APL cells (IC50 values, SRB cell growth assay) (HeLa-APL cells; triplicate plates): no significant crossresistance
Molecule: Nc1nc2nc[nH]c2c(=S)[nH]1 [6-thioguanine]

Molecule: CC[C@H](C)[C@H]1NC(=O)[C@@H](NC(=O)[C@@H](CC(C)C)N(C)C(=O)[C@@H]2CCCN2C(=O)C(C)=O)[C@@H](C)OC(=O)[C@H](Cc2ccc(OC)cc2)N(C)C(=O)[C@@H]2CCCN2C(=O)[C@H](CC(C)C)NC(=O)[C@@H](C)C(=O)[C@H](C(C)C)OC(=O)C[C@@H]1O [APL, Aplidin™] (Pyruvoyl-P[dNMeL]T[X1]LP[NMeY](Me); ester 3-C)
presence of the intact drug in cells [1]: confirmed

Molecule: CC[C@H](C)[C@H]1NC(=O)[C@@H](NC(=O)[C@@H](CC(C)C)N(C)C(=O)Cc2cc(=O)oc3cc(N(C)C)ccc23)[C@@H](C)OC(=O)[C@H](Cc2ccc(OC)cc2)N(C)C(=O)[C@@H]2CCCN2C(=O)[C@H](CC(C)C)NC(=O)[C@@H](C)C(=O)[C@H](C(C)C)OC(=O)C[C@@H]1O [APL-dmac, aplidin-dimethylaminocoumarin] (X2-[dNMeL]T[X1]LP[NMeY](Me); ester 2-C)
internalisation and accumulation in the cytoplasmic compartment ([2]; 450 nM APL-dmac, 1 h, 37°C, HeLa wt and HeLa-APL): consistent in both cell systems | internalisation after long-term treatment ([2]; not shown): remained internalised | presence of the intact drug in cells [1]: detected in both cell lines

Molecule: COc1cc(NS(C)(=O)=O)ccc1Nc1c2ccccc2nc2ccccc12 [amsacrine]
crossresistance of HeLa-APL cells (HeLa-APL cells): no significant crossresistance

Molecule: CC[C@@]1(O)C(=O)OCc2c1cc1n(c2=O)Cc2cc3ccccc3nc2-1 [camptothecin]
crossresistance of HeLa-APL cells (IC50 values, SRB cell growth assay) (HeLa-APL cells; triplicate plates): no significant crossresistance

Molecule: O=C(O)CCCc1ccc(N(CCCl)CCCl)cc1 [chlorambucil]
crossresistance of HeLa-APL cells (HeLa-APL cells): no significant crossresistance

Molecule: N.N.[Cl][Pt][Cl] [cisplatin]
crossresistance of HeLa-APL cells (IC50 values, SRB cell growth assay) (HeLa-APL cells; triplicate plates): no significant crossresistance

crossresistance of HeLa-APL cells (IC50 values, SRB cell growth assay) (HeLa-APL cells; triplicate plates): no significant crossresistance
Molecule: COc1cccc2c1C(=O)c1c(O)c3c(c(O)c1C2=O)C[C@@](O)(C(=O)CO)C[C@@H]3O[C@H]1C[C@H](N)[C@H](O)[C@H](C)O1 [doxorubicin]

crossresistance of HeLa-APL cells (IC50 values, SRB cell growth assay) (HeLa-APL cells; triplicate plates): no significant crossresistance
Molecule: COc1cc([C@@H]2c3cc4c(cc3[C@@H](O[C@@H]3O[C@@H]5CO[C@@H](C)O[C@H]5[C@H](O)[C@H]3O)[C@H]3COC(=O)[C@H]23)OCO4)cc(OC)c1O [etoposide]

Molecule: Nc1nc(F)nc2c1ncn2[C@@H]1O[C@H](CO)[C@@H](O)[C@@H]1O [fludarabine]
crossresistance of HeLa-APL cells (IC50 values, SRB cell growth assay) (HeLa-APL cells; triplicate plates): no significant crossresistance

Molecule: N[C@@H](Cc1ccc(N(CCCl)CCCl)cc1)C(=O)O [melphalan]
crossresistance of HeLa-APL cells (HeLa-APL cells): no significant crossresistance

Molecule: O=C1c2c(O)ccc(O)c2C(=O)c2c(NCCNCCO)ccc(NCCNCCO)c21 [mitoxantrone]
crossresistance of HeLa-APL cells (HeLa-APL cells): no significant crossresistance

crossresistance of HeLa-APL cells (IC50 values, SRB cell growth assay) (HeLa-APL cells; triplicate plates): no significant crossresistance
Molecule: CC(=O)O[C@H]1C(=O)[C@@]2(C)[C@H]([C@H](OC(=O)c3ccccc3)[C@]3(O)C[C@H](OC(=O)[C@H](O)[C@@H](NC(=O)c4ccccc4)c4ccccc4)C(C)=C1C3(C)C)[C@]1(OC(C)=O)CO[C@@H]1C[C@@H]2O [paclitaxel]

Molecule: CC[C@H](C)[C@H]1NC(=O)[C@@H](NC(=O)[C@@H](CC(C)C)N(C)C(=O)[C@@H]2CCCN2C(=O)[C@H](C)O)[C@@H](C)OC(=O)[C@H](Cc2ccc(OC)cc2)N(C)C(=O)[C@@H]2CCCN2C(=O)[C@H](CC(C)C)NC(=O)[C@H](C(C)C)OC(=O)C[C@@H]1O [tamandarin A] (H-[Lac]P[dNMeL]T[X3][Hiv]LP[NMeY](Me); ester 4-C)
cytotoxic activity relative to APL [3]: comparable to that of APL

Molecule: COc1ccc(CCN(C)CCCC(C#N)(c2ccc(OC)c(OC)c2)C(C)C)cc1OC (centres unmarked) [verapamil]
effect of pre-incubation on calcein-AM accumulation (Pgp170 in LoVo-Dox cells): accumulation of calcein-AM in LoVo-Dox-resistant cells to an extent similar to that observed in sensitive LoVo cells

crossresistance of HeLa-APL cells (IC50 values, SRB cell growth assay) (HeLa-APL cells; triplicate plates): no significant crossresistance
Molecule: CC[C@]1(O)C[C@@H]2CN(CCc3c([nH]c4ccccc34)[C@@](C(=O)OC)(c3cc4c(cc3OC)N(C)[C@H]3[C@@](O)(C(=O)OC)[C@H](OC(C)=O)[C@]5(CC)C=CCN6CC[C@]43[C@@H]65)C2)C1 [vinblastine]

Molecule: didemnin B
crossresistance of HeLa-APL cells to APL structural analogues (HeLa-APL cells; 48 h exposure, SRB assay, triplicate plates): comparable crossresistance | cytotoxic activity relative to APL [3]: comparable to that of APL

Reference: paper PMC2409906, “Establishment and characterisation of a human carcinoma cell line with acquired resistance to Aplidin™” (British Journal of Cancer, 2004)
